Active and inactive are the calls of the source. No cut-off for these calls is given here.
Columns and labels:
[1] = Toxicity in CF1 mouse infected with asexual blood-stage (ABS) Plasmodium yoelii MRA-428 assessed as hyperactivity at 0.3 to 30 mg/kg, po treated 24 hrs post infection measured after 4 days; type: organism-based; details: in vivo, 96 h, dose 0.3-30 mg/kg, time 4 day
[2] = tested on: Plasmodium falciparum; experiment: Antiplasmodial activity against AART-resistant Plasmodium falciparum DR4 measured after 72 hrs by drug susceptibility test; type: functional, organism-based; details: DR4, 72 h
[3] = (§1) Selectivity index, ratio of CC50 for Macaca mulatta hepatocytes to IC50 for antiplasmodial activity against schizont Plasmodium cynomolgi B strain infected in Macaca mulatta hepatocytes incubated with sporozoite containing salivary gland homogenate obtained from dissected Anopheles dirus mosquitoes (infected with Plasmodium cynomolgi B strain) treatment started on day 4 post infection and continued daily for 4 days into fresh changed media until day 8 assessed as Liver stage (LS) activity by measuring prophylactic mode by immunofluorescent staining analysis; type: toxicity, cell-based; details: rhesus monkey, read-out: Selectivity Index
[4] = tested on: Plasmodium falciparum; experiment: Antiplasmodial activity against AART-resistant Plasmodium falciparum DR1 measured after 72 hrs by drug susceptibility test; type: functional, organism-based; details: DR1, 72 h
[5] = Mutagenicity in Salmonella typhimurium TA100 assessed as background reversion rate up to 10 uM without S-9 metabolic activation by AMES test; type: toxicity; details: salmonella enterica subsp. enterica serovar typhimurium
[6] = tested on: Plasmodium berghei; experiment: In vivo antiplasmodial activity against luciferase expressing liver stage Plasmodium berghei ANKA MRA-868 sporozoites infected in Albino C57BL/6 mouse model assessed as visible parasites at 40 mg/kg, po daily measured 24 to 48 hrs by real-time In Vivo Imaging System (IVIS); type: functional, organism-based; details: time 24-48 hrs
[7] = Tmax in male ICR-CD1 mouse plasma at 40 mg/kg, po; type: ADME, organism-based
[8] = target: Voltage-gated inwardly rectifying potassium channel KCNH2 (Homo sapiens, UniProt Q12809); experiment: Inhibition of hERG expressed in HEK293 cells by manual patch clamp assay; type: toxicity, cell-based
[9] = tested on: Plasmodium berghei; experiment: In vivo antiplasmodial activity against luciferase expressing liver stage Plasmodium berghei ANKA MRA-868 sporozoites infected in Albino C57BL/6 mouse model assessed as cured mouse at 40 mg/kg, po daily measured after 31 days; type: functional, organism-based; details: time 31.0 day
[10] = tested on: Plasmodium falciparum; experiment: Synergistic antiplasmodial activity against pan-sensitive Plasmodium falciparum D6 assessed as fractional inhibitory concentration in presence of tafenoquine; type: functional
[11] = tested on: Plasmodium falciparum; experiment: Ex vivo antiplasmodial activity against clinical isolate Plasmodium falciparum isolated from Ugandan measured after 72 hrs by growth inhibition assay; type: functional, organism-based
[12] = tested on: Plasmodium yoelii; experiment: In vivo antiplasmodial activity against asexual blood-stage (ABS) Plasmodium yoelii MRA-428 infected in 4-day suppression CF1 mouse model assessed as reduction in parasitemia by measuring cured mouse at 60 mg/kg, po single dose treated 24 hrs post infection; type: functional, organism-based
[13] = tested on: Plasmodium falciparum; experiment: Synergistic antiplasmodial activity against multi-drug resistant Plasmodium falciparum Tm90-C2B assessed as fractional inhibitory concentration in presence of tafenoquine; type: functional
[14] = mouse, microsomes, 1 h
[15] = tested on: Plasmodium falciparum; experiment: Antiplasmodial activity against Plasmodium falciparum Dd2 measured after 72 hrs by drug susceptibility test; type: functional, organism-based; details: Dd2, 72 h
[16] = tested on: Plasmodium cynomolgi; experiment: as §1, with “Antiplasmodial” for “Selectivity index, ratio of CC50 for Macaca mulatta hepatocytes to IC50 for antiplasmodial”, “radical cure” for “prophylactic”; type: functional, organism-based; details: Hepatocyte
[17] = AUC(0 to infinity) in male ICR-CD1 mouse plasma at 40 mg/kg, po; type: ADME, organism-based; details: in vivo
[18] = tested on: Plasmodium yoelii; experiment: In vivo antiplasmodial activity against asexual blood-stage (ABS) Plasmodium yoelii MRA-428 infected in 4-day suppression CF1 mouse model assessed as reduction in parasitemia treated 24 hrs post infection daily measured on day 4; type: functional
[19] = AUCextrap in male ICR-CD1 mouse plasma at 40 mg/kg, po; type: ADME, organism-based
[20] = Half life in male ICR-CD1 mouse plasma at 40 mg/kg, po; type: ADME, organism-based
[21] = Apparent oral clearance in male ICR-CD1 mouse plasma at 40 mg/kg, po; type: ADME, organism-based; details: in vivo
[22] = tested on: Plasmodium yoelii; experiment: In vivo antiplasmodial activity against asexual blood-stage (ABS) Plasmodium yoelii MRA-428 infected in 4-day suppression CF1 mouse model assessed as reduction in parasitemia by measuring protection at 10 mg/kg, po treated 24 hrs post infection daily for 4 days relative to control; type: functional; design: scale not given: the % may be the effect or the level left

Sequence of Voltage-gated inwardly rectifying potassium channel KCNH2 (Q12809 whole entry): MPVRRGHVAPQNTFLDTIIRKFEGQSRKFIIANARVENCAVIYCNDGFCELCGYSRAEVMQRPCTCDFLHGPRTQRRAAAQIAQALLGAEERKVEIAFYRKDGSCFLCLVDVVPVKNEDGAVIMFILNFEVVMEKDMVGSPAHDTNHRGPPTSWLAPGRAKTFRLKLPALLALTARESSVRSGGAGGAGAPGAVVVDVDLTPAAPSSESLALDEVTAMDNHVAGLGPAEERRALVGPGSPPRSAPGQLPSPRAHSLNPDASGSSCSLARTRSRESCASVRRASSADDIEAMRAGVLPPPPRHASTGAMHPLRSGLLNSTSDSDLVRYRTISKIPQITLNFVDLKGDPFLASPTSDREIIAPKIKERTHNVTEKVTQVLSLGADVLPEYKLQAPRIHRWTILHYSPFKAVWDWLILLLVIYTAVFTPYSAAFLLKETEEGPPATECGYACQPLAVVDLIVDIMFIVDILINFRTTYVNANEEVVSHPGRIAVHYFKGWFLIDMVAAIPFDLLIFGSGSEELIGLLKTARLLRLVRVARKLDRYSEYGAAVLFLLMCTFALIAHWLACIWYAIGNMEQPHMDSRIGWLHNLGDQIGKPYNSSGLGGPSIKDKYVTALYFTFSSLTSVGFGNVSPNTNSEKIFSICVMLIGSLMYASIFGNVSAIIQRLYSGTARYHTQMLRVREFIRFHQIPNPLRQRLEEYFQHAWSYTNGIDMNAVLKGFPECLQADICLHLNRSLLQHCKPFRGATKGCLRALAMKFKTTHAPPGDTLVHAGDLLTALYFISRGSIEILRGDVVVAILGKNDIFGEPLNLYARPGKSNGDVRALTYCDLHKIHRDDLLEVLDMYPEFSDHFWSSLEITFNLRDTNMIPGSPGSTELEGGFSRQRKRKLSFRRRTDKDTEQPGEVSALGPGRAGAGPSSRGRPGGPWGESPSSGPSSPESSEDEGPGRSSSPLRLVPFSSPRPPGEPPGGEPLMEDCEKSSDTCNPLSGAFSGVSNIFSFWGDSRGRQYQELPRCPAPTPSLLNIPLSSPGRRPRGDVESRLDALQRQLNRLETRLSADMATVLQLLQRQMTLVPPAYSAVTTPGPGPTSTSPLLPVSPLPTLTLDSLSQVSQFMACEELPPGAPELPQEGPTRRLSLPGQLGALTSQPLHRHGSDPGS

For `O=c1c2c([nH]c3cc(Oc4ccc(OC(F)(F)F)cc4)ccc13)CCCC2`, the Activity [1] was “Non-toxic”, the IC50 [2] was 5.35 nM and the selectivity ratio at 96 h [3] was 4.69. For the same molecule, the IC50 [4] was 5.26 nM, the Activity [5] was “Non-toxic” and the Activity [6] was “Active”. The Tmax [7] was 1 h, the IC50 [8] was over 10000 nM and the Activity [9] was “Active; Out Of 5 - 5 Mouse Cured”. The FIC [10] was 0.81, the IC50 [11] was 10.5 nM and the Activity [12] was “Active”. It also gave an FIC [13] of 0.76, a t1/2 [14] of 0.197 h and an IC50 [15] of 2.06 nM. For the same molecule, the IC50 [16] was 380 nM.

With `O=c1c2c([nH]c3cc(Oc4ccc(OC(F)(F)F)cc4)c(F)cc13)CCCC2` the Activity [1] was “Non-toxic”, the AUC [17] was 219 ng·h/mL and the selectivity ratio at 96 h [3] was 31.1. The Activity [5] was “Non-toxic”, the ED50 [18] was 1.5 mg/kg and the ED90 [18] was 4.7 mg/kg. The AUC [19] was 23.7%, the Activity [6] was “Active” and the half-life [20] was 3.89 h. For the same molecule, the CL/F [21] was 87.98 mL/min/kg, the Tmax [7] was 1 h and the Activity [22] was 100%. For the same molecule, the Activity [12] was “Active” and the IC50 [16] was 2410 nM.

Source: ChEMBL document CHEMBL6134844, “Development of Next-Generation Antimalarial Acridones with Radical Cure Potential” (J Med Chem, 2025)
